Experimental findings from a melting point compilation (Tetko et al.; mined from patent text by program, amines drawn as free bases though some values may be those of a salt) are described below.

The melting point is the temperature of the solid-liquid transition.

Bounds are passed on as bounds.

Compound `OC/C=C/C=C/c1ccc(OCC(F)(F)C(F)F)cc1` returned a melting point of 95 to 97 °C. `O=C(NCCO)c1cccc(-c2cccc3nn(Cc4cccc(C(F)(F)F)c4)cc23)n1` registered a melting point of 150 to 151 °C. Then `Cc1ccc(S(=O)(=O)N2CCC[C@H]2C(=O)N2c3ccc(F)c(Cl)c3C(=O)CC2C)cc1` (some centres undefined), with 135 to 136 °C; and `O=C(O)CCc1oc(Sc2ccccc2)nc1-c1ccc(Cl)cc1`, with 156 to 157 °C; and `O=C(O)CC1(C(=O)O)CCc2cc3ccccc3n2C1` (centres undefined), with 185 to 188 °C.

`CCCCCCc1cc2c(s1)NC(=O)CN=C2c1ccc(OC)cc1`: the melting point lay within 123 to 125 °C. Then `O=c1c(-c2cccc(C(F)(F)F)c2)c[nH]n1-c1cccc(C(F)(F)F)c1`, with 207 to 208 °C; and `O=C1c2ccccc2C(=O)N1CCCOc1ccc(O)cc1`, with 135 to 137 °C. With `COc1ccc(C2=NN(C3CCN(C(=O)CCCOc4ccc5[nH]c(=O)ccc5c4)CC3)C(=O)CC2)cc1OC` the figure was 169 to 171 °C; with `COC(=O)c1ccc2c(=O)n(CC(C)C)c(CNC(=O)OC(C)(C)C)c(-c3ccc(C)cc3)c2c1`, 193 to 194 °C; with `CCOCCC(=O)C=P(c1ccccc1)(c1ccccc1)c1ccccc1`, 63 to 65 °C. For `CCN(CC)S(=O)(=O)c1cc(-c2csc(=Nc3ccccc3C)n2C)ccc1Cl`, the melting point was 166 °C. Then `CCn1nc2c(OC)nc3ccccc3c2c1CO`, with 219 to 220 °C; and `CC1NC(=O)NN=C1c1ccc(O)cc1` (centres undefined), with 256 to 259 °C; and `Cn1c(=O)oc2cc(CCBr)ccc21`, with 104 to 106 °C. In turn, `COc1cc(N)c(Cl)cc1C(=O)NCC1CCN(CCCSc2ccccc2)CC1` yielded a melting point of 146 to 148 °C.

`CCCCS(=O)(=O)c1c(-c2ccccc2)nn(C)c1-c1ccccc1` gave a melting point of 92.5 to 93 °C. With `COC(=O)c1ccccc1CS(=O)(=O)NC(=S)Nc1nc(OC)cc(OC)n1` the figure was 167 to 168 °C. Then `N#Cc1ccc(C(=O)c2ccc(OC3OC(CO)C(O)C(O)C3O)cc2)cc1` (centres undefined), with 122 °C; and `Cc1cc(I)ccc1OC=C1C=CC=CC1n1nnn(C)c1=O` (centres undefined), with 128 to 130 °C.

For `COc1ccc(C(=O)c2ccccc2)c([N+](=O)[O-])c1O`, the melting point was 137 to 139 °C.

`N#Cc1ccc(N2C(=O)NC3(CCCC3)C2=O)cc1C(F)(F)F` gave a melting point of 184 to 185 °C. Then `O=C(O)CCCc1ccc2c(c1)CCC2`, with 57 to 58 °C; and `CCCCCCC(=O)CCCCCCCC(COC(C)=O)(COC(C)=O)NC(C)=O`, with 88 to 89 °C. `COc1cc(CSc2ccc(O)cc2)cc(OC)c1OC` gave a melting point of 139 to 140 °C. Then `O=[N+]([O-])c1ccc(F)cc1OCc1ccccc1`, with 52 to 54 °C; and `COc1ccc(C2=NN(C3CCN(S(=O)(=O)c4cccc(C)c4)CC3)C(=O)C(C)(C)C2)cc1OC`, with 150 to 152 °C; and `Cc1nn(-c2ccc(F)cc2)cc1C(=O)N(CC(=O)O)c1ccc(N2CCC(O)CC2)c(C#N)c1`, with 124 to 125 °C. Then `CCNc1nc(CC)c(C(=O)c2ccc(N)c([N+](=O)[O-])c2)s1`, with 210 to 212 °C. Then `COc1ccc(C(=O)P2(=O)Oc3ccccc3-c3ccccc32)c(OC)c1` (centres undefined), with 112 to 115 °C; and `CCCc1nn(C)c2c1N=C(c1cc(CCC(=O)O)ccc1OCC)NC2`, with 165 to 167 °C; and `COc1ccc(C(=O)c2ccccn2)c(Cl)c1Cl`, with 104 to 107 °C.

`O=c1c2ccccc2cc(Cl)c2ccccc12` showed a melting point of 118 to 121 °C. With `C[C@H]1CCCC(C)(C)[C@@H]1[C@H](O)c1ccc(F)cc1` the figure was 55 to 57 °C; with `O=C(O)C1=Cc2cc(Cl)cc(C#Cc3ccccc3)c2OC1C(F)(F)F` (centres undefined), 190 to 192 °C; with `CC(C)(C)OC(=O)N[C@@H]1C[C@H](CO)[C@@H](O)C1`, 126 to 128 °C. With `COc1ccc2nc(O)c(O)nc2c1` the figure was above 300 °C; with `CCOC(=O)c1cnn2c1nc(OCC)c1cnc3c(cnn3CC)c12`, 167 to 168 °C.

In the case of `COc1ccc(CCc2cc(OC)c(OC)cc2C)cc1OC`, the melting point was found to be 102 °C. As to `Cc1cc(C)cc(-n2ncc(-c3ccc(S(C)(=O)=O)cc3)c(-c3ccc(F)cc3)c2=O)c1`, the melting point fell in the range of 130 to 134 °C. Turning to `O=C(Nc1ccc(S(=O)(=O)C[N+](=O)[O-])cc1)c1ccccc1`, the melting point fell in the range of 211 to 212 °C. With `Nc1ccc(C#Cc2c(F)c(F)nc(F)c2F)cc1` the figure was 164 to 165 °C. Then `O=C(Nc1cc(C2CC2)n[nH]1)c1ccccc1`, with 234 °C. With `CCNC(=O)c1ccccc1NS(=O)(=O)C(F)(F)F` the figure was 85.5 to 87 °C; with `CCOC(=O)C1=C[C@H](O)[C@H](NC(C)=O)[C@@H](N=[N+]=[N-])C1`, 51 to 53 °C; with `O=[N+]([O-])c1cc([N+](=O)[O-])c(Nc2c(Br)cc(Cl)c3ccccc23)c(C(F)(F)F)c1`, 207 to 209 °C. The compound `CCN=C1SC(=CC(=O)O)C(=O)N1CC` gave a melting point of 148 to 152 °C. Then `N#CC(C(=O)NCc1ccccc1)C(=O)c1nn(-c2ccc(F)cc2)c2c1CSc1ccc(Cl)cc1-2` (centres undefined), with 216 to 218 °C. Then `NC(=O)[C@H](CO)Nc1nc(SCc2cccc(F)c2F)nc2nc(N)sc12`, with 145 to 151 °C; and `S=C(NCCc1ccccc1Cl)Nc1ccccn1`, with 116 to 122 °C. Then `Oc1ccccc1C=NC1CCOc2ccccc21` (centres undefined), with 123 to 126 °C.

For `COc1ccc(-c2ccc(F)cc2F)cc1`, the melting point is 73 to 76 °C. With `O=C(O)c1c(F)cc(F)c(F)c1NCc1ccccc1` the figure was 140 to 141 °C; with `Cc1c(Cl)cc(NC(=O)C(=O)Nc2cc(Cl)c(C)c(Cl)c2O)c(O)c1Cl`, 330 °C.

Take `CCc1coc(Cc2ccc(NC(=O)/C=C/c3cnn(C)c3-c3ccc(F)cc3)cc2)n1`: the melting point is 174 to 175 °C. Then `OCc1csc(N(c2ccccc2)c2ccccc2)n1`, with 136 to 138 °C; and `COc1ccc(-c2cc(=O)n(CCCOc3ccccc3)nc2-c2ccc(OC)cc2)cc1`, with 110 to 111 °C.

The compound `Cc1ccc(Oc2ccc(C)cc2CC(=O)O)cc1` came in with a melting point of 101 to 104 °C.

Take `O=Cc1ccc(OCc2ccccn2)cc1O`: the melting point lay within 89.2 to 89.7 °C. For `O=C(O)C=CC(=O)OC1CCN(C(=O)Cn2c(=O)sc3ccc(Cl)cc32)CC1`, the melting point fell in the range of 197 to 198 °C.

`Cc1ccc2c(c1)Oc1cscc1C(=O)N2` showed a melting point of 209 to 216 °C. As to `COC(=O)[C@H](Cc1c[nH]cn1)NC(=O)[C@H](Cc1ccccc1)NC(=O)OCc1ccccc1`, the melting point was 113 to 116 °C. With `CN1CCCc2c(NC(=NC#N)NC(NC(=O)Cc3ccc(Cl)cc3)C(C)(C)C)cccc21` (centres undefined) the figure was 114 to 117 °C; with `COCC12CCC(=O)CC1CCC1C3CCC(=O)C3(C)CCC12` (centres undefined), 94 to 96 °C.
